{"source": "patent US20260158011A1", "about": "(Achieve Life Sciences, Inc., priority 2023, published 2026)", "test_system": "adults who smoked 10 cigarettes per day", "details": "for Biochemically confirmed continuous smoking abstinence Weeks 3-6, % / Biochemically confirmed continuous smoking abstinence Weeks 9-12, %: primary outcome; for Biochemically confirmed continuous smoking abstinence Weeks 6-24, % / Biochemically confirmed continuous smoking abstinence Weeks 12-24, %: secondary outcome; for Relapse-free abstinence from week 6 to 24: intent-to-treat", "protocol": "The trial was conducted at 17 U.S. sites. Adults aged 18 years were eligible if they currently smoked 10 cigarettes per day, had expired air carbon monoxide (CO) ≥10 ppm, and intended to quit smoking. Individuals were excluded if they used any non-cigarette tobacco product (pipe tobacco, cigars, smokeless tobacco, hookah), electronic cigarettes, smoking cessation medication (bupropion, varenicline, nortriptyline, nicotine replacement product), or marijuana (smoked or vaped) in the 28 days before randomization or planned to use them during the study. Other exclusion criteria included uncontrolled hypertension, hepatic or renal impairment, past 3-month history of acute myocardial infarction, unstable angina, cerebrovascular incident, or hospitalization for congestive heart failure, diagnosis of schizophrenia or bipolar disorder, current psychosis, suicidal ideation or suicide risk (Columbia Suicide Severity Rating Scale), (1) moderate to severe depression symptoms (Hospital Anxiety and Depression Scale score ≥11), (2) or a positive urinary screen for illicit drugs. (Full criteria in Trial Protocol).\nAt a screening visit, individuals provided written informed consent, completed a medical history, brief physical examination, electrocardiogram and laboratory tests, agreed to a quit date 5 to 7 days after study drug initiation, and recorded the number of cigarettes smoked daily for 7 days. At a second visit, participants who met inclusion and exclusion criteria were randomly assigned to study arm, received brief smoking cessation counseling, set their quit date within 5 to 7 days and started study medication the next day. A predetermined central computer-generated randomization sequence was used to assign participants (1:1:1) stratified by study site to receive placebo TID for 12 weeks (Arm A), 3 mg cytisinicline TID for 6 weeks followed by placebo TID for 6 weeks (Arm B), or 3 mg cytisinicline TID for 12 weeks (Arm C).\nStudy medication was identical-appearing tablets, containing 3 mg cytisinicline or placebo taken orally TID for 12 weeks. Participants were followed for 12 additional weeks after treatment ended. All participants received 10 minutes of brief smoking cessation behavioral support provided by trained counselors at each visit from randomization through week 24.\nAssessments after randomization were conducted at in-person visits on day 2, weekly from 1 to 12 weeks, and at weeks 16, 20, and 24. Participants who discontinued study drug prematurely were encouraged to remain in the study and complete all assessment visits. Smoking status was assessed by self-report of cigarette abstinence since the last visit, measured weekly from weeks 2 through 12. Self-reported abstinence at weeks 16, 20, and 24 used the Russell criteria of not smoking more than 5 cigarettes since the last visit (3). A breath carbon monoxide (CO) level was measured at each visit. Verified abstinence required self-reported nonsmoking and a breath carbon monoxide (CO) <10 ppm. Participants not meeting these criteria or with missing data were classified as smoking.\nThe study had two primary endpoints. […] Study success was defined as either primary endpoint meeting statistical criterion. The secondary outcome measures were verified continuous cigarette abstinence to week 24 (weeks 3 to 24 for Arms B vs. A; weeks 9 to 24 for Arms C vs. A). A third secondary outcome measure compared the risk of relapse to smoking between weeks 6 and 24 among participants assigned to cytisinicline who achieved abstinence by week 6; these individuals were either switched to placebo at week 6 (Arm B) or continued cytisinicline to week 12 (Arm C). Other pre-specified endpoints included comparing the difference between arms in verified 7-day point-prevalence abstinence at each visit from week 2 through week 24 and assessing for evidence of effect modification for subsets defined by baseline attributes.", "key": {"[1]": {"details": "Arm B Cytisinicline 6 weeks, N = 269"}, "[2]": {"details": "Arm C Cytisinicline 12 weeks, N = 270"}}, "note": "Like-named read-outs stand apart in the source and are kept apart here."}
{"compound": "O=c1cccc2n1C[C@@H]1CNC[C@H]2C1", "note": "[cytisine, (−)-Cytisine]", "values": [{"measurement": "OR for relapse-free abstinence week 6 to 24, Arm B vs Arm C", "setting": "12-week versus 6-week cytisinicline", "result": 1.31}, {"measurement": "Biochemically confirmed continuous smoking abstinence Weeks 3-6, %", "setting": "[1]", "result": 25.3, "unit": "%"}, {"measurement": "Biochemically confirmed continuous smoking abstinence Weeks 9-12, %", "setting": "[1]", "result": 22.3, "unit": "%"}, {"measurement": "Biochemically confirmed continuous smoking abstinence Weeks 6-24, %", "setting": "[1]", "result": 8.9, "unit": "%"}, {"measurement": "Biochemically confirmed continuous smoking abstinence Weeks 12-24, %", "setting": "[1]", "result": 13.8, "unit": "%"}, {"measurement": "OR versus placebo, continuous abstinence weeks 3 to 24", "setting": "Arm B vs. A", "result": 3.7}, {"measurement": "OR versus placebo, continuous abstinence weeks 3 to 6", "setting": "Arm B vs. A (6-week treatment)", "result": 8.0}, {"measurement": "Risk Difference, continuous smoking abstinence Weeks 6-24", "setting": "Arm B vs. Arm A, Cytisinicline-6 weeks vs. placebo, 95% CI 0.03, 0.09", "result": 0.06}, {"measurement": "Risk Difference, continuous smoking abstinence Weeks 12-24", "setting": "Arm B vs. Arm A, Cytisinicline-6 weeks vs. placebo, 95% CI 0.04, 0.13", "result": 0.09}, {"measurement": "Risk Difference, continuous smoking abstinence Weeks 9-12", "setting": "Arm B vs. Arm A, Cytisinicline-6 weeks vs. placebo, 95% CI 0.10, 0.20", "result": 0.15}, {"measurement": "Risk Difference, continuous smoking abstinence Weeks 3-6", "setting": "Arm B vs. Arm A, Cytisinicline-6 weeks vs. placebo, 95% CI 0.16, 0.25", "result": 0.21}, {"measurement": "Relative Risk, continuous smoking abstinence Weeks 6-24", "setting": "Arm B vs. Arm A, Cytisinicline-6 weeks vs. placebo, 95% CI 1.56, 8.50", "result": 3.45}, {"measurement": "Relative Risk, continuous smoking abstinence Weeks 12-24", "setting": "Arm B vs. Arm A, Cytisinicline-6 weeks vs. placebo, 95% CI 1.59, 5.46", "result": 2.87}, {"measurement": "Relative Risk, continuous smoking abstinence Weeks 9-12", "setting": "Arm B vs. Arm A, Cytisinicline-6 weeks vs. placebo, 95% CI 1.98, 5.30", "result": 3.18}, {"measurement": "Relative Risk, continuous smoking abstinence Weeks 3-6", "setting": "Arm B vs. Arm A, Cytisinicline-6 weeks vs. placebo, 95% CI 3.26, 10.74", "result": 5.71}, {"measurement": "NNT (number needed to treat), continuous smoking abstinence Weeks 3-6", "setting": "Arm B vs. Arm A, Cytisinicline-6 weeks vs. placebo, 95% CI 4, 7", "result": 5}, {"measurement": "NNT (number needed to treat), continuous smoking abstinence Weeks 9-12", "setting": "Arm B vs. Arm A, Cytisinicline-6 weeks vs. placebo, 95% CI 4, 11", "result": 7}, {"measurement": "NNT (number needed to treat), continuous smoking abstinence Weeks 12-24", "setting": "Arm B vs. Arm A, Cytisinicline-6 weeks vs. placebo, 95% CI 7, 24", "result": 11}, {"measurement": "NNT (number needed to treat), continuous smoking abstinence Weeks 6-24", "setting": "Arm B vs. Arm A, Cytisinicline-6 weeks vs. placebo, 95% CI 10, 40", "result": 16}, {"measurement": "Biochemically-confirmed continuous smoking abstinence, weeks 3 to 6", "setting": "Arm B: 3 mg cytisinicline TID 6 weeks then placebo 6 weeks", "result": 25.3, "unit": "%"}, {"measurement": "Continuous abstinence weeks 3 to 24", "setting": "Arm B: 6-week cytisinicline treatment", "result": 8.9, "unit": "%"}, {"measurement": "Relapse-free abstinence from week 6 to 24", "setting": "Arm B: switched to placebo at week 6", "result": 10.4, "unit": "%"}, {"measurement": "Biochemically confirmed continuous smoking abstinence Weeks 3-6, %", "setting": "[2]", "result": 22.2, "unit": "%"}, {"measurement": "Biochemically confirmed continuous smoking abstinence Weeks 9-12, %", "setting": "[2]", "result": 32.6, "unit": "%"}, {"measurement": "Biochemically confirmed continuous smoking abstinence Weeks 6-24, %", "setting": "[2]", "result": 11.9, "unit": "%"}, {"measurement": "Biochemically confirmed continuous smoking abstinence Weeks 12-24, %", "setting": "[2]", "result": 21.1, "unit": "%"}, {"measurement": "OR versus placebo, continuous abstinence weeks 9 to 24", "setting": "Arm C vs. A", "result": 5.3}, {"measurement": "OR versus placebo, continuous abstinence weeks 9 to 12", "setting": "Arm C vs. A (12-week treatment)", "result": 6.3}, {"measurement": "Risk Difference, continuous smoking abstinence Weeks 6-24", "setting": "Arm C vs. Arm A, Cytisinicline-12 weeks vs. placebo, 95% CI 0.05, 0.12", "result": 0.09}, {"measurement": "Risk Difference, continuous smoking abstinence Weeks 12-24", "setting": "Arm C vs. Arm A, Cytisinicline-12 weeks vs. placebo, 95% CI 0.11, 0.20", "result": 0.16}, {"measurement": "Risk Difference, continuous smoking abstinence Weeks 3-6", "setting": "Arm C vs. Arm A, Cytisinicline-12 weeks vs. placebo, 95% CI 0.13, 0.22", "result": 0.18}, {"measurement": "Risk Difference, continuous smoking abstinence Weeks 9-12", "setting": "Arm C vs. Arm A, Cytisinicline-12 weeks vs. placebo, 95% CI 0.20, 0.30", "result": 0.26}, {"measurement": "Relative Risk, continuous smoking abstinence Weeks 6-24", "setting": "Arm C vs. Arm A, Cytisinicline-12 weeks vs. placebo, 95% CI 2.15, 11.05", "result": 4.59}, {"measurement": "Relative Risk, continuous smoking abstinence Weeks 12-24", "setting": "Arm C vs. Arm A, Cytisinicline-12 weeks vs. placebo, 95% CI 2.53, 8.15", "result": 4.40}, {"measurement": "Relative Risk, continuous smoking abstinence Weeks 3-6", "setting": "Arm C vs. Arm A, Cytisinicline-12 weeks vs. placebo, 95% CI 2.842, 9.50", "result": 5.02}, {"measurement": "Relative Risk, continuous smoking abstinence Weeks 9-12", "setting": "Arm C vs. Arm A, Cytisinicline-12 weeks vs. placebo, 95% CI 2.98, 7.58", "result": 4.65}, {"measurement": "NNT (number needed to treat), continuous smoking abstinence Weeks 9-12", "setting": "Arm C vs. Arm A, Cytisinicline-12 weeks vs. placebo, 95% CI 3, 6", "result": 4}, {"measurement": "NNT (number needed to treat), continuous smoking abstinence Weeks 3-6", "setting": "Arm C vs. Arm A, Cytisinicline-12 weeks vs. placebo, 95% CI 4, 8", "result": 6}, {"measurement": "NNT (number needed to treat), continuous smoking abstinence Weeks 12-24", "setting": "Arm C vs. Arm A, Cytisinicline-12 weeks vs. placebo, 95% CI 4, 9", "result": 6}, {"measurement": "NNT (number needed to treat), continuous smoking abstinence Weeks 6-24", "setting": "Arm C vs. Arm A, Cytisinicline-12 weeks vs. placebo, 95% CI 8, 20", "result": 11}, {"measurement": "Biochemically-confirmed continuous smoking abstinence, weeks 9 to 12", "setting": "Arm C: 3 mg cytisinicline TID 12 weeks", "result": 32.6, "unit": "%"}, {"measurement": "Continuous abstinence weeks 9 to 24", "setting": "Arm C: 12-week cytisinicline treatment", "result": 21.1, "unit": "%"}, {"measurement": "Relapse-free abstinence from week 6 to 24", "setting": "Arm C: continued cytisinicline to week 12", "result": 13.3, "unit": "%"}, {"measurement": "Odds Ratio Arm B vs. Arm A, continuous smoking abstinence Weeks 6-24", "setting": "Cytisinicline 6 wk vs. placebo, 95% CI 1.5 to 10.2, P .002", "result": 3.7}, {"measurement": "Odds Ratio Arm B vs. Arm A, continuous smoking abstinence Weeks 3-6", "setting": "Cytisinicline 6 wk vs. placebo, 95% CI 3.9 to 16.3, P <.001", "result": 8.0}, {"measurement": "Odds Ratio Arm C vs. Arm A, continuous smoking abstinence Weeks 12-24", "setting": "Cytisinicline 12 wk vs. placebo, 95% CI 2.8 to 11.1, P <.001", "result": 5.3}, {"measurement": "Odds Ratio Arm C vs. Arm A, continuous smoking abstinence Weeks 9-12", "setting": "Cytisinicline 12 wk vs. placebo, 95% CI 3.7 to 11.6, P <.001", "result": 6.3}, {"measurement": "Mean total cigarette craving score (QSU-brief)", "setting": "baseline to week 6, cytisinicline for 6 or 12 weeks compared to placebo", "result": "declined more rapidly"}]}
